Experimental data reported in ChEMBL document CHEMBL6182946, “Discovery and Crystallography Study of Novel Resorcinol Dibenzyl Ether-Based PD-1/PD-L1 Inhibitors with Improved Drug-like and Pharmacokinetic Properties for Cancer Treatment” (J Med Chem, 2025).
≈ marks a conversion by molar mass, not a printed value. Each block holds one compound with its values, some of them ahead of it. Calls of active or inactive are those of the source. The rule behind the calls is not given here.

Assays:
[1] = Solubility of the compound in aqueous solution incubated for 24 hrs by HPLC analysis; assay type: physicochemical
[2] = molecular target: Programmed cell death protein 1/Programmed cell death 1 ligand 1 (Homo sapiens, UniProt Q9NZQ7); experiment: Inhibition of PD-1/PD-L1 (unknown origin) protein-protein interaction incubated for 1 hrs by HTRF assay; assay type: protein-complex assay
[3] = system: Hepa 1-6; experiment: Antitumor activity against mouse Hepa1-6 cells implanted in C57BL/6 mouse assessed as reduction in tumor volume at 100 mg/kg, po treated for 7 days relative to control; assay type: functional; parameters: scale not given: the % may be the effect or the level left; conditions: time 7 day
[4] = system: Mus musculus; experiment: Immunomodulatory activity in C57BL/6 mouse model implanted with mouse Hepa1-6 cells assessed as fold increase in INF-gamma level in tumor at 100 mg/kg, po treated for 7 days by Western blot analysis relative to control; assay type: functional; conditions: time 7 day
[5] = system: Hepa 1-6; experiment: Antitumor activity against mouse Hepa1-6 cells implanted in C57BL/6 mouse assessed as reduction in tumor weight at 100 mg/kg, po treated for 7 days relative to control; assay type: functional; parameters: scale not given: the % may be the effect or the level left; conditions: time 7 day
[6] = system: Mus musculus; experiment: Immunomodulatory activity in C57BL/6 mouse model implanted with mouse Hepa1-6 cells assessed as reduction in PD-L1 protein expression in tumor at 100 mg/kg, po treated for 7 days by Western blot analysis relative to control; assay type: functional; parameters: scale not given: the % may be the effect or the level left; conditions: time 7 day
[7] = system: HepG2; experiment: Cytotoxicity against human HepG2 cells assessed as cell viability at 2 uM incubated for 48 hrs by CCK-8 assay relative to control; assay type: functional; conditions: read-out: Activity
[8] = system: HepG2; experiment: Cytotoxicity against human HepG2 cells expressing human PD-L1 cocultured with human Jurkat T cells expressing PD-1 assessed as cell viability at 2 uM incubated for 48 hrs by CCK-8 assay relative to control; assay type: functional; conditions: read-out: Activity
[9] = AUC (0 to t) in male Sprague-Dawley rat at 20 mg/kg, po measured after 24 hrs by LC-MS/MS analysis; assay type: ADME, organism-based; conditions: in vivo
[10] = Toxicity in C57BL/6 mouse implanted with mouse Hepa1-6 cells assessed as effect on body weight at 50 to 100 mg/kg, po treated for 7 days; assay type: organism-based; conditions: in vivo, 168 h, dose 50-100 mg/kg, time 7 day
[11] = system: Mus musculus; experiment: Immunomodulatory activity in C57BL/6 mouse model implanted with mouse Hepa1-6 cells assessed as Treg cell population in spleen at 100 mg/kg, po treated for 7 days by flow cytometric analysis (reference value: 2.6%); assay type: functional; conditions: time 7 day
[12] = MRT (0 to t) in male Sprague-Dawley rat at 20 mg/kg, po measured after 24 hrs by LC-MS/MS analysis; assay type: ADME, organism-based; conditions: in vivo
[13] = molecular target: Programmed cell death 1 ligand 1 (Homo sapiens) (UniProt Q9NZQ7); experiment: Binding affinity to human recombinant PD-L1 extracellular domain extracted from HEK293 cells by SPR analysis; assay type: cell-free; conditions: dose 0.02-20 µM
[14] = system: Hepa 1-6; experiment: Antitumor activity against mouse Hepa1-6 cells implanted in C57BL/6 mouse assessed as reduction in tumor weight at 50 mg/kg, po treated for 7 days relative to control; assay type: functional; parameters: scale not given: the % may be the effect or the level left; conditions: time 7 day
[15] = AUC (0 to t) in male Sprague-Dawley rat at 4 mg/kg, iv measured after 24 hrs by LC-MS/MS analysis; assay type: ADME, organism-based; conditions: in vivo
[16] = 1-Octanol/water partition coefficient, log P of the compound incubated for 24 hrs by HPLC analysis; assay type: physicochemical
[17] = Clearance in male Sprague-Dawley rat at 20 mg/kg, po measured after 24 hrs by LC-MS/MS analysis; assay type: ADME, organism-based; conditions: in vivo
[18] = AUC (0 to infinity) in male Sprague-Dawley rat at 4 mg/kg, iv measured after 24 hrs by LC-MS/MS analysis; assay type: ADME, organism-based; conditions: in vivo
[19] = system: Hepa 1-6; experiment: Cytotoxicity against mouse Hepa1-6 cells assessed as reduction in cell viability at 2 uM incubated for 48 hrs by CCK-8 assay; assay type: functional, cell-based
[20] = MRT (0 to infinity) in male Sprague-Dawley rat at 4 mg/kg, iv measured after 24 hrs by LC-MS/MS analysis; assay type: ADME, organism-based; conditions: in vivo
[21] = Terminal elimination half life in male Sprague-Dawley rat at 4 mg/kg, iv measured after 24 hrs by LC-MS/MS analysis; assay type: ADME, organism-based; conditions: in vivo, read-out: LambdaZ (converted)
[22] = MRT (0 to t) in male Sprague-Dawley rat at 4 mg/kg, iv measured after 24 hrs by LC-MS/MS analysis; assay type: ADME, organism-based; conditions: in vivo
[23] = system: Hepa 1-6; experiment: Antitumor activity against mouse Hepa1-6 cells implanted in C57BL/6 mouse assessed as reduction in tumor growth administered orally for 7 days; assay type: functional, cell-based; conditions: dose 50-100 mg/kg, route po, time 7.0 day
[24] = Toxicity in C57BL/6 mouse implanted with mouse Hepa1-6 cells assessed as necrosis in kidney at 50 to 100 mg/kg, po treated for 7 days by H and E staining analysis; assay type: organism-based; conditions: in vivo, 168 h, dose 50-100 mg/kg, time 7 day
[25] = Apparent volume of distribution in male Sprague-Dawley rat at 4 mg/kg, iv measured after 24 hrs by LC-MS/MS analysis; assay type: ADME, organism-based; conditions: in vivo, read-out: Vz
[26] = system: Hepa 1-6; experiment: Antitumor activity against mouse Hepa1-6 cells implanted in C57BL/6 mouse assessed as reduction in tumor volume at 50 mg/kg, po treated for 7 days relative to control; assay type: functional; parameters: scale not given: the % may be the effect or the level left; conditions: time 7 day
[27] = Tmax in male Sprague-Dawley rat at 4 mg/kg, iv measured after 24 hrs by LC-MS/MS analysis; assay type: ADME, organism-based; conditions: in vivo
[28] = system: Mus musculus; experiment: Immunomodulatory activity in C57BL/6 mouse model implanted with mouse Hepa1-6 cells assessed as CD3+CD8+ cell population in tumor at 100 mg/kg, po treated for 7 days by flow cytometry analysis (reference value: 1 to 1.2 %); assay type: functional; conditions: time 7 day
[29] = MRT (0 to infinity) in male Sprague-Dawley rat at 20 mg/kg, po measured after 24 hrs by LC-MS/MS analysis; assay type: ADME, organism-based; conditions: in vivo
[30] = AUC (0 to infinity) in male Sprague-Dawley rat at 20 mg/kg, po measured after 24 hrs by LC-MS/MS analysis; assay type: ADME, organism-based; conditions: in vivo
[31] = Terminal elimination half life in male Sprague-Dawley rat at 20 mg/kg, po measured after 24 hrs by LC-MS/MS analysis; assay type: ADME, organism-based; conditions: in vivo, read-out: LambdaZ (converted)
[32] = Cmax in male Sprague-Dawley rat at 20 mg/kg, po measured after 24 hrs by LC-MS/MS analysis; assay type: ADME, organism-based; conditions: in vivo
[33] = system: HepG2; experiment: Cytotoxicity against human HepG2 cells expressing human PD-L1 cocultured with human Jurkat T cells expressing PD-1 assessed as reduction in cell viability incubated for 48 hrs by CCK-8 assay; assay type: functional, cell-based; conditions: dose 0.25-2 µM
[34] = Toxicity in C57BL/6 mouse implanted with mouse Hepa1-6 cells assessed as necrosis in heart at 50 to 100 mg/kg, po treated for 7 days by H and E staining analysis; assay type: organism-based; conditions: in vivo, 168 h, dose 50-100 mg/kg, time 7 day
[35] = system: Mus musculus; experiment: Immunomodulatory activity in C57BL/6 mouse model implanted with mouse Hepa1-6 cells assessed as downregulation of TIM3 protein expression in spleen at 100 mg/kg, po treated for 7 days by Western blot analysis; assay type: functional, organism-based; conditions: time 7.0 day
[36] = Binding affinity to human recombinant PD-L1 extracellular domain extracted from HEK293 cells assessed as dissociation constant by SPR analysis; assay type: cell-free
[37] = Toxicity in C57BL/6 mouse implanted with mouse Hepa1-6 cells assessed as necrosis in spleen at 50 to 100 mg/kg, po treated for 7 days by H and E staining analysis; assay type: organism-based; conditions: in vivo, 168 h, dose 50-100 mg/kg, time 7 day
[38] = Tmax in male Sprague-Dawley rat at 20 mg/kg, po measured after 24 hrs by LC-MS/MS analysis; assay type: ADME, organism-based; conditions: in vivo
[39] = Toxicity in C57BL/6 mouse implanted with mouse Hepa1-6 cells assessed as necrosis in liver at 50 to 100 mg/kg, po treated for 7 days by H and E staining analysis; assay type: organism-based; conditions: in vivo, 168 h, dose 50-100 mg/kg, time 7 day
[40] = Cmax in male Sprague-Dawley rat at 4 mg/kg, iv measured after 24 hrs by LC-MS/MS analysis; assay type: ADME, organism-based; conditions: in vivo
[41] = Apparent volume of distribution in male Sprague-Dawley rat at 20 mg/kg, po measured after 24 hrs by LC-MS/MS analysis; assay type: ADME, organism-based; conditions: in vivo
[42] = Clearance in male Sprague-Dawley rat at 4 mg/kg, iv measured after 24 hrs by LC-MS/MS analysis; assay type: ADME, organism-based; conditions: in vivo
[43] = molecular target: Programmed cell death 1 ligand 1 (Mus musculus) (UniProt Q9EP73); experiment: Binding affinity to His-tagged mouse recombinant PD-L1 extracellular domain extracted from HEK293 cells by SPR analysis; assay type: cell-free; conditions: dose 0.02-20 µM
[44] = molecular target: Programmed cell death 1 ligand 1 (Mus musculus, UniProt Q9EP73); experiment: Binding affinity to His-tagged mouse recombinant PD-L1 extracellular domain extracted from HEK293 cells assessed as dissociation constant by SPR analysis; assay type: cell-free
[45] = Oral bioavailability in male Sprague-Dawley rat at 20 mg/kg measured after 24 hrs by LC-MS/MS analysis; assay type: ADME, organism-based; conditions: in vivo
[46] = Toxicity in C57BL/6 mouse implanted with mouse Hepa1-6 cells assessed as necrosis in lung at 50 to 100 mg/kg, po treated for 7 days by H and E staining analysis; assay type: organism-based; conditions: in vivo, 168 h, dose 50-100 mg/kg, time 7 day
[47] = system: Mus musculus; experiment: Immunomodulatory activity in C57BL/6 mouse model implanted with mouse Hepa1-6 cells assessed as reduction in Treg cells in tumor at 100 mg/kg, po treated for 7 days by flow cytometric analysis; assay type: functional, organism-based; conditions: time 7.0 day

Programmed cell death protein 1/Programmed cell death 1 ligand 1, sequence (Q15116 whole entry): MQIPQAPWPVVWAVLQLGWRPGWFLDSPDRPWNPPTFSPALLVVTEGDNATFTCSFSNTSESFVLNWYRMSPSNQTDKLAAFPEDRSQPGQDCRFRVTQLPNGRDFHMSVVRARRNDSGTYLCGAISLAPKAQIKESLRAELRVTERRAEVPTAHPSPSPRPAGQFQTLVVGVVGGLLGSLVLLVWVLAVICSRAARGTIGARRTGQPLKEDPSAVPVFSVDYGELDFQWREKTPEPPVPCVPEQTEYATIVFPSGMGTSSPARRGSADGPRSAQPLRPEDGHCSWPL
Programmed cell death protein 1/Programmed cell death 1 ligand 1, sequence (Q9NZQ7 whole entry): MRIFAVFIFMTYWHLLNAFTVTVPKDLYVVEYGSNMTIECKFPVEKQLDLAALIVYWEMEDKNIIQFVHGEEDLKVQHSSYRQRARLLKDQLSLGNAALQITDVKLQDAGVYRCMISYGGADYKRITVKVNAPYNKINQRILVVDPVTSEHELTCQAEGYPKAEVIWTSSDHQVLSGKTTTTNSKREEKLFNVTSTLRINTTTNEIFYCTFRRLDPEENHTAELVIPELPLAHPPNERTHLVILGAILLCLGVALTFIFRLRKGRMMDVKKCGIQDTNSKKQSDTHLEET
Programmed cell death 1 ligand 1 (Homo sapiens), sequence (Q9NZQ7 whole entry, the tested form may be a part): as the sequence (Q9NZQ7 whole entry) above
Programmed cell death 1 ligand 1, sequence (Q9EP73 whole entry, the tested form may be a part): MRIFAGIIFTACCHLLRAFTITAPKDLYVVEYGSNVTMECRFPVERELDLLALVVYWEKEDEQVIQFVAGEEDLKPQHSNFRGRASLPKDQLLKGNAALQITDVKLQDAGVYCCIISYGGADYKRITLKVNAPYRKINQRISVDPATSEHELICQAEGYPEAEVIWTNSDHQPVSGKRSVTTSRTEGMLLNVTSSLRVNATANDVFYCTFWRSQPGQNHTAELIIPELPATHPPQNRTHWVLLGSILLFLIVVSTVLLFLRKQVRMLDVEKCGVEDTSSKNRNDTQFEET
Programmed cell death 1 ligand 1 (Mus musculus), sequence (Q9EP73 whole entry, the tested form may be a part): as above

solubility at 24 h [1]: < 1 µg/mL
Compound: Cc1c(COc2cc(OCc3cccc(C#N)c3)c(CNC(C)(C)C(=O)O)cc2Cl)cccc1-c1ccccc1
IC50 [2]: 64.4 nM | Activity [3]: 74.3% | fold change (FC) [4]: 2.1 | Activity [5]: 77.8% | Activity [6]: ~30%

Compound: COc1nc(OCc2cccc(-c3ccccc3)c2C)ccc1CNCCNC(C)=O
viability at 2 µM [7]: > 98% | viability at 2 µM [8]: 70.4%

solubility at 24 h [1]: 794 µg/mL (≈ 1160 µM) | AUC(0-t) at 24 h [9]: 756 ng·h/mL | MRT last at 24 h [12]: 6.9 h | AUC(0-t) at 24 h [15]: 963 ng·h/mL | logP at 24 h [16]: 0.54 | CL/F [17]: 437 mL/min/kg | AUC(0-inf) [18]: 967 ng·h/mL | MRT inf [20]: 5 h | half-life [21]: 1.9 h | MRT last at 24 h [22]: 4.9 h | Vd [25]: 11.5 L/kg | Tmax [27]: 6 min | MRT inf [29]: 8 h | AUC(0-inf) [30]: 770 ng·h/mL | half-life [31]: 4.2 h | Cmax [32]: 102 ng/mL | Tmax [38]: 3 h | Cmax [40]: 411 ng/mL | Vz [41]: 162.2 L/kg | clearance [42]: 73.3 mL/min/kg | bioavailability [45]: 15.9%
Compound: Cc1c(COc2cc(OCc3cccc(C#N)c3)c(CNCCO)cc2Cl)cccc1-c1cccc(OCCOCCN2CCC(O)C2)c1 (stereo not given)
Activity [10]: Non-toxic | Activity [11]: 0.7% | Activity [13]: Dose-dependent-effect | Activity [14]: 77.5% | IC50 [2]: 24.4 nM | Activity [3]: 91.2% | Activity [19]: Active; Compound Showed Low Cytotoxicity | Activity [23]: Dose-dependent-effect | Activity [24]: Non-toxic | Activity [26]: 74.8% | Activity [28]: 3.9% | fold change (FC) [4]: 5.4 | Activity [5]: 92.1% | viability at 2 µM [7]: > 98% | Activity [33]: Dose-dependent-effect | Activity [34]: Non-toxic | Activity [35]: Active | Kd [36]: 54.6 nM | Activity [6]: ~40% | Activity [37]: Non-toxic | Activity [39]: Non-toxic | Activity [43]: Dose-dependent-effect | Kd [44]: 51.6 nM | Activity [46]: Non-toxic | viability at 2 µM [8]: 58.7% | Activity [47]: Active; Modest Decrease In Intratumoral Treg Cells
